Entries after “also recorded” stand apart in the source; their conditions may differ.
Assays:
HUVECs = HUVECs proliferation assay (CellTiter96 AQueous One); assay type: cell-based, human
Description: HUVECs were seeded onto a 96-well plate at 1×10^4 cells/well. […] Organic solvent concentration never exceeded 0.1% of total culture volume. […] 20 μl of Aqueous One reagent was added to the 100 μl medium in each well. The plates were incubated for 2 hours at 37° C. in a humidified incubator. Absorbance was recorded at 490 nm using a 96-well Bio Kinetics Reader EL340 (Bio-TEK, Winooski, Vt.). The data represent changes in percent absorbance of treated cultures compared with control cells. Three different experiments were carried out, and each point was determined in triplicate.

rat cornea = assay: Rat cornea pocket angiogenesis assay (growth factor pellets); assay type: in vivo; details: for angiogenic response to growth factor alone: 250 ng growth factor per pellet
Description: (i) Preparation of sustained-release polymer: Sustained-release polymer pellets were prepared by making a 1:1 mix of a 12% solution in ethanol of the polymer (Hydron polyhydroxyethylmethacrylate), with saline containing the growth factors. The growth factors bFGF, VEGF, and EGF were dissolved at a concentration of 125 ng/μl. […] 2 μl of these solutions were added to each pellet. Thus, a pellet containing 250 ng of a single growth factor was implanted at random in the right or left eye. The other eye was implanted with a pellet containing the same dose of growth factor+HET0016. In some rats the pellet contained VEGF alone and VEGF+DDMS. 20 μg of the stable 20-HETE agonist analog WIT003 was implanted in one eye to determine whether it induces angiogenesis. […] 9 μl of the 1:1 Hydron/treatment mixture was placed on the ends of 1.5-cm rods. Each pellet contained 250 ng of its respective growth factor. For bFGF we used sucralfate to stabilize and allow sustained release of this growth factor (Volkin D B et al., Biochim Biophys Acta 1993, 1203:18-26). After drying the pellets for 1 hour, they were ready to be implanted into the cornea of rats.
(ii) Pellet implantation: The rats were anesthetized IM with ketamine (80 mg/kg) and xylazine (10 mg/kg). The eyes were topically anesthetized with 0.5% proparacaine (Ophthetic, Alcon, Tex.) and the globes proptosed with a jeweler's forceps. Using an operating microscope, a central intrastromal linear keratotomy, approximately 1.5 mm in length, was performed with a surgical blade (Bard-Parker #11; Becton Dickinson, Franklin Lake, N.Y.) parallel to the insertion of the lateral rectus muscle. A curved iris spatula (No. 10093-13, Fine Science Tools, Belmont, Calif.) approximately 1.5 mm wide and 5 mm long was inserted under the lip of the incision and gently pushed through the stroma toward the temporal limbus of the eye. The distance between the limbus and the base of the pocket was kept at 1.0±0.1 mm. The pellet was advanced to the temporal end of the pocket. Antibiotic ointment (erythromycin) was applied to the anterior surface of the eye.
(iv) Quantitation of corneal neovascularization: Seven days after pellet implantation, the rats were deeply anesthetized as previously described with ketamine and xylazine. The left ventricle was cannulated and the animal was perfused with 20-25 ml saline through the left ventricle followed by 20-25 ml India ink (waterproof drawing ink, Sanford, Bellwood, Ill.). The eyes were marked for orientation, enucleated and placed in 4% formalin for 24 hours. The cornea was dissected free from the surrounding globe and underlying iris, bisected, and loosely mounted between two glass slides, thus gently flattening the cornea. These flat mounts were examined microscopically using a Nikon Diaphot Epi-fluor 2 microscope attached to a CCD video camera and the images were digitized and saved using a computer.
Neovascularization was determined by comparing total vessel length in the control and experimental eyes. Vessel length was determined by tracing each vessel from the limbus to the pellet. Total length is the sum of these values in pixels and was determined using conventional image analysis software (Sigma Scan Pro, SPSS, Chicago, Ill.)

U251 human glioma cells = assay: U251 cell proliferation assay (cell counting); assay type: cell-based; details: for increase of U251 cell proliferation: 1 μM agonist, 48 hr, serum-starved
Description: Culture Conditions: Cells were routinely maintained in DMEM (Invitrogen) supplemented with 10% heat-inactivated fetal bovine serum (FBS), penicillin (10 IU/ml), streptomycin (10 μg/ml) and 10% non-essential amino acids (all purchased from Invitrogen). Cells were maintained at 37° C. in a humidified incubator containing 5% CO2. They were grown in medium containing 10% FBS, which was then replaced with serum-free medium where U251 cells grow exponentially. Treatments were initiated one day after serum removal.
Cell Proliferation Assays: Proliferation studies were performed with cultures plated at a density that ensured exponential growth for at least 5 days. Growth medium was generally replaced by serum-free medium 24 hr after plating. Cells were treated with various concentrations of a given compounds for 24 or 48 hr as described in the Methods. […] Organic solvent never exceeded 0.1% of total culture volume. Cells were harvested by exposure to 0.05% trypsin/EDTA and counted using a hemocytometer.

9L rat gliosarcoma cells = assay: 9L cell proliferation assay (cell counting); assay type: cell-based
Description: Culture Conditions: 9L rat gliosarcoma cells were purchased from ATC (Gaithersburg, Md.) and were maintained in DMEM (Invitrogen) supplemented with 10% heat-inactivated fetal bovine serum (FBS), penicillin (10 IU/ml), streptomycin (10 μg/ml) and 10% non-essential amino acids (all purchased from Invitrogen). Cells were maintained at 37° C. in a humidified incubator containing 5% CO2. They were grown in medium containing 10% FBS, which was then replaced with serum-free medium (give type and source) where 9L cells grow exponentially.
Cell Proliferation Assays: Proliferation studies were performed with cultures plated at a density that ensured exponential growth for at least 5 days. Growth medium were generally replaced by serum free medium 24 hr after plating. […] The concentration of the ethanol added to the media never exceeded 0.1%. Cells were harvested by exposure to a solution of 0.05% Trypsin/EDTA and counted using a hemocytometer.

20-HETE = details: cited from earlier work
[1] = up to 40 μg palmitic acid per pellet

Compound: O=C(O)CCCC/C=C\CCCCCCC/C=C\CCCCO [WIT003, 20-hydroxyeicosa-6(Z),15(Z)-dienoic acid]
- effect on proliferation of HUVECs (HUVECs; 1 μM WIT003, 48 hours): increased the proliferation rate; also recorded: increased proliferation of the cells
- angiogenic response to the 20-HETE analog alone (rat cornea; 20 μg WIT003 per pellet, 7 days): induced an angiogenic response
- stimulatory effect on proliferation of U251 cells (U251 human glioma cells; 0.1 μM WIT003, 48 hr): has no more stimulatory effect on proliferation of U251 cells than 50 ng/ml EGF
- rescue of U251 cells from the anti-proliferative effects of HET0016 (U251 human glioma cells; 1 μM WIT003 + 10 μM HET0016, 48 h): reverses the effects of HET0016; also recorded: can rescue
- U251 proliferation with WIT003 and HET0016, increase above HET0016 alone (U251 human glioma cells; 1 μM WIT003 + 10 μM HET0016, 2 days): about 70%
- U251 growth stimulation compared with EGF (U251 human glioma cells; 1 μM WIT003, 48 h): comparable to the growth stimulating effect induced by 200 ng/ml EGF; also recorded: as much as 200 ng/ml EGF
- increase of U251 cell proliferation (U251 human glioma cells): 20%
- stimulation of 9L proliferation compared with EGF (9L rat gliosarcoma cells; 1 μM WIT003): A similar degree of stimulation
- rescue of 9L cells from the inhibitory actions of HET0016 (9L rat gliosarcoma cells; 1 μM WIT003 + 10 μM HET0016): partially rescued

Compound: C#CCCCCCCCCCCCCCCCC(=O)O [17-ODYA, 17-Octadecynoic acid]
- ability to reduce 20-HETE levels in vivo (20-HETE): reduce 20-HETE levels in vivo

Compound: bFGF: basic fibroblast growth factor, purchased from R&D Systems
- angiogenic response to growth factor alone (rat cornea): Vigorous angiogenic responses

Compound: CCCCCCCCCCCCCCCC(=O)O [palmitic acid]
- angiogenic effect of fatty acid control alone (rat cornea; [1]): had no effect by itself
- influence of fatty acid control on angiogenic responses to VEGF (rat cornea; [1]): no difference in angiogenic responses to VEGF
- influence of fatty acid control on angiogenic responses to VEGF (rat cornea; up to 40 μg palmitic acid per pellet, listed as Palmitic acid): showed no ability to influence angiogenic responses to VEGF

Compound: VEGF
- effect on proliferation of HUVECs (HUVECs; 250 ng/ml VEGF alone): stimulated proliferation
- angiogenic response to growth factor alone (rat cornea): marked neovascularization response; also recorded: Vigorous angiogenic responses

Compound: O=C(O)CCC/C=C\CCCCCCC/C=C\CCCCCO [20-hydroxyeicosa-5(Z),14(Z)-dienoic acid]
- reversal of HET0016 blockade of U251 cell proliferation (U251 human glioma cells; 1 μM 20-HETE agonist + HET0016): about 70%
- increase of U251 cell proliferation (U251 human glioma cells): about 20%

Compound: EGF: epidermal growth factor, positive control for proliferation
- angiogenic response to growth factor alone (rat cornea): Vigorous angiogenic responses
- increase of proliferation of 9L cells (9L rat gliosarcoma cells; EGF 200 ng/ml): about 30%
- effect on number of 9L cells (9L rat gliosarcoma cells; EGF 200 ng/ml, 24 and 48 hrs): increased the number of cells
